SMILES strings stand for the structures.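 In this assay, cells in 96-well plates receive the compound at five concentrations for 48 hours. Endpoints are linearly interpolated between the surrounding concentrations. The concentration for full growth arrest is given as TGI.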 A value given as a limit tells only on which side of the number the result lay.

Test systems include SW-620 colon; HOP-92 NSCLC; TK-10 renal; MCF7 breast; MALME-3M melanoma; EKVX NSCLC; K-562 leukemia; U251 CNS; MOLT-4 leukemia; HCC-2998 colon; SK-OV-3 ovarian; SN12C renal; HS 578T breast; DU-145 prostate; SR leukemia.
Holding throughout (experiment): inhibition of tumour cell growth, NCI panel, 48 h

Consider `N#Cc1c(Cl)cc(C#N)n2c1nc1ccccc12`, for which the TGI in the assay with SW-620 colon was found to be 9.1 µM; with HOP-92 NSCLC it was 16.8 µM; in the assay with TK-10 renal it was 26.4 µM; in the assay with MCF7 breast it was 24.9 µM; in the assay on MALME-3M melanoma, 18.5 µM; in the assay with EKVX NSCLC it was 39.5 µM. The TGI with K-562 leukemia is 21.1 µM; in the assay on U251 CNS it was 36 µM; in the assay on MOLT-4 leukemia it was 5.4 µM; in the assay with HCC-2998 colon, 40.9 µM; with SK-OV-3 ovarian, 51.3 µM; in the assay with SN12C renal it was 38.6 µM. Also, the TGI in the assay on HS 578T breast was determined as 83.7 µM; in the assay on DU-145 prostate, 41.3 µM.
On to `N=c1oc2ccccc2cc1C(=O)Nc1cccc2ccccc12`, for which the TGI in the assay on SW-620 colon, with HOP-92 NSCLC, in the assay on MCF7 breast, in the assay on MALME-3M melanoma, in the assay on K-562 leukemia and with U251 CNS was more than 100 µM each time. In addition, the TGI in the assay with MOLT-4 leukemia, with HCC-2998 colon, in the assay on SK-OV-3 ovarian, in the assay on SN12C renal, in the assay with HS 578T breast and in the assay with SR leukemia was more than 100 µM each time. For the same molecule, the TGI in the assay with DU-145 prostate is more than 100 µM.
Turning to `CC1(C)Cc2c(sc3[nH]c(=S)[nH]c(=S)c23)CS1`, the TGI in the assay on SW-620 colon is more than 100 µM; in the assay on HOP-92 NSCLC, 50.4 µM; in the assay on TK-10 renal, more than 100 µM; with MCF7 breast, more than 100 µM; with MALME-3M melanoma, 75.6 µM; in the assay on K-562 leukemia, more than 100 µM. Besides, the TGI with U251 CNS is more than 100 µM; with MOLT-4 leukemia, more than 100 µM; in the assay on SK-OV-3 ovarian, 99.7 µM; in the assay on SN12C renal, more than 100 µM; in the assay on HS 578T breast, more than 100 µM; in the assay on SR leukemia, more than 100 µM. In the assay on DU-145 prostate, this molecule returned a TGI of more than 100 µM.
With `CCCCC(=O)/C=c1/cc(C)[nH]c2cccc3cnn1c32`, the TGI with SW-620 colon, in the assay on HOP-92 NSCLC, with TK-10 renal, in the assay with MCF7 breast, in the assay on MALME-3M melanoma and with EKVX NSCLC was more than 100 µM in each case. For the same molecule, the TGI in the assay on U251 CNS, in the assay on MOLT-4 leukemia, with SK-OV-3 ovarian, in the assay on SN12C renal, in the assay on HS 578T breast and with SR leukemia was more than 100 µM each time. In the assay on DU-145 prostate, this molecule had a TGI of more than 100 µM.
Take `O=C(Sc1c(-c2ccccc2)c(=O)n(-c2ccccc2)c(=S)n1-c1ccccc1)c1ccccc1`: the TGI is more than 100 µM with SW-620 colon; 71.9 µM with HOP-92 NSCLC; more than 100 µM in the assay on TK-10 renal; more than 100 µM with MCF7 breast; more than 100 µM in the assay on MALME-3M melanoma; more than 100 µM with EKVX NSCLC. Also, the TGI is more than 100 µM with K-562 leukemia; more than 100 µM in the assay with U251 CNS; 73.3 µM with MOLT-4 leukemia; more than 100 µM with SK-OV-3 ovarian; more than 100 µM in the assay on SN12C renal; more than 100 µM with HS 578T breast. Moreover, the TGI in the assay on SR leukemia and with DU-145 prostate was more than 100 µM in each case.
In the case of `CC(=O)NS(=O)(=O)c1ccc(NCc2cccc3c(=O)c4ccc(Cl)cc4oc23)cc1`, the TGI with SW-620 colon is more than 100 µM; in the assay on HOP-92 NSCLC, 69.7 µM; with TK-10 renal it was more than 100 µM; in the assay with MCF7 breast, more than 100 µM; in the assay with MALME-3M melanoma, more than 93.5 µM; in the assay with EKVX NSCLC it was more than 100 µM. In addition, the TGI in the assay on K-562 leukemia, in the assay with U251 CNS, in the assay on MOLT-4 leukemia, in the assay with HCC-2998 colon, with SK-OV-3 ovarian and in the assay with SN12C renal was more than 100 µM in each case. Besides, the TGI is 97.7 µM in the assay with HS 578T breast and more than 100 µM in the assay on DU-145 prostate.
As to `CCOC(=O)C1=C(C)N(c2ccc(Cl)cc2)C2(O)C=CC(=O)C3=C(O)c4ccccc4C(=O)C312` (configuration not stated), the TGI came to 12.7 µM in the assay with SW-620 colon; 8.98 µM with HOP-92 NSCLC; 8.03 µM in the assay with TK-10 renal; 8.72 µM in the assay on MCF7 breast; 4.53 µM in the assay on MALME-3M melanoma; 21.4 µM in the assay with EKVX NSCLC. Further, the TGI with K-562 leukemia turned out to be 18.1 µM; with U251 CNS it was 15.6 µM; with MOLT-4 leukemia, 8.65 µM; in the assay on SK-OV-3 ovarian, 30.7 µM; with SN12C renal, 13.5 µM; in the assay on HS 578T breast, 23.1 µM. This molecule had a TGI in the assay with DU-145 prostate of 21.1 µM.
Consider `O=C1C=C(c2ccccc2)OC1C1Sc2ccccc2NC1=O` (configuration not stated), for which the TGI is more than 100 µM in the assay on SW-620 colon; more than 87 µM in the assay on HOP-92 NSCLC; more than 27.9 µM in the assay with TK-10 renal; more than 23.6 µM with MCF7 breast; more than 100 µM with MALME-3M melanoma; more than 100 µM in the assay with EKVX NSCLC. Also, the TGI in the assay with K-562 leukemia was more than 28.3 µM; in the assay on U251 CNS it was more than 43.3 µM; with MOLT-4 leukemia it was more than 40.1 µM; with HCC-2998 colon, more than 31.3 µM; with SK-OV-3 ovarian, more than 33.8 µM; with SN12C renal it was 68.8 µM. The TGI was more than 100 µM with HS 578T breast and more than 81 µM in the assay with DU-145 prostate.
On to `O=C1Nc2ccc(Br)cc2/C1=N/S(=O)(=O)O`, for which the TGI in the assay on SW-620 colon was more than 100 µM; in the assay on HOP-92 NSCLC it was more than 100 µM; in the assay on TK-10 renal it was 57.1 µM; in the assay on MCF7 breast, 40 µM; with MALME-3M melanoma it was 71.4 µM; with EKVX NSCLC, 85.7 µM. In addition, the TGI is 42.6 µM in the assay with K-562 leukemia; more than 100 µM with U251 CNS; 63.4 µM with MOLT-4 leukemia; more than 100 µM with HCC-2998 colon; more than 100 µM in the assay on SK-OV-3 ovarian; 37 µM in the assay on SN12C renal. Moreover, the TGI in the assay on HS 578T breast and in the assay on DU-145 prostate was more than 100 µM each time.
As to `CCOC(=O)CN1C(=O)NC(C)(c2ccccc2)C1=O` (configuration not stated), the TGI in the assay on SW-620 colon, in the assay on HOP-92 NSCLC, in the assay on TK-10 renal, with MCF7 breast, with EKVX NSCLC and in the assay on K-562 leukemia was more than 100 µM in each case. For the same molecule, the TGI in the assay with U251 CNS, in the assay with MOLT-4 leukemia, in the assay with HCC-2998 colon, with SK-OV-3 ovarian, in the assay with SN12C renal and with HS 578T breast was more than 100 µM each time. Moreover, the TGI in the assay with DU-145 prostate was more than 100 µM.
On to `Cc1ccc(N2C(=O)C3c4[nH]c5ccc(C)cc5c4C4CCC(C(C)(C)C)CC4C3C2=O)cc1` (configuration not stated), for which the TGI was 58.7 µM in the assay on SW-620 colon; 52.1 µM in the assay with HOP-92 NSCLC; 39.5 µM in the assay on TK-10 renal; 28.7 µM with MCF7 breast; 44.4 µM with MALME-3M melanoma; 43.4 µM with EKVX NSCLC. Further, the TGI was 16.1 µM in the assay on K-562 leukemia; 27.7 µM in the assay with U251 CNS; 8.06 µM in the assay with MOLT-4 leukemia; 27.3 µM in the assay on SN12C renal; 44 µM in the assay on HS 578T breast; 62 µM in the assay on DU-145 prostate.

The values are drawn from PubChem BioAssay (NCI).
